Experimental data taken from patent US20240254138A1, “TRICYCLIC PYRIMIDINES AS CYCLIN-DEPENDENT KINASE 7 (CDK7) INHIBITORS” (JANSSEN PHARMACEUTICA NV, priority 2021, published 2024).
Where two headings read alike, the source gives them in different places.

Experiments:
[1] = target: CDK7/cyclinH/MAT1 trimeric complex (Homo sapiens, UniProt P50613); experiment: In vitro CDK7 assay, potency of irreversible covalent inhibitors (kinact/KI), coupled PK/LDH ADP readout at 340 nm; details: for Ki: CDK7 (20 nM enz.) (KI, μM), 20 nM enzyme
CDK7/cyclinH/MAT1 trimeric complex, sequence (P50613 whole entry): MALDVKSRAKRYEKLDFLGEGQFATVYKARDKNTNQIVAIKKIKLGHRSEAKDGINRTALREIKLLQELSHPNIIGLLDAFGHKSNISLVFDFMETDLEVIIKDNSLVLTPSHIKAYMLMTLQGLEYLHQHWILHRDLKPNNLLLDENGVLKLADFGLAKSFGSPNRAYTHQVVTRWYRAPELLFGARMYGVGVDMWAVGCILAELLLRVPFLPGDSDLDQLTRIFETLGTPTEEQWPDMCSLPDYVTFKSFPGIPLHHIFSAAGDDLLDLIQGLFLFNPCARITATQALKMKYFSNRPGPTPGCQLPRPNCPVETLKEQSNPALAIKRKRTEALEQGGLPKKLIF
CDK7/cyclinH/MAT1 trimeric complex, sequence (P51946 whole entry partner): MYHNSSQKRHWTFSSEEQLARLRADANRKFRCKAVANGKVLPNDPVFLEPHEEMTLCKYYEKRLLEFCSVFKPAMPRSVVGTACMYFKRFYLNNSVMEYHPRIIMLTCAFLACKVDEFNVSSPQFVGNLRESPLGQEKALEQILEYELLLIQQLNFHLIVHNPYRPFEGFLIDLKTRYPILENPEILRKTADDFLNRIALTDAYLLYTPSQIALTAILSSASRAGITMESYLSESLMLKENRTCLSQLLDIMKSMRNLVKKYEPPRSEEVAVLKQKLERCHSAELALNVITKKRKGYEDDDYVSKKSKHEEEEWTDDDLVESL
CDK7/cyclinH/MAT1 trimeric complex, sequence (P51948 whole entry partner): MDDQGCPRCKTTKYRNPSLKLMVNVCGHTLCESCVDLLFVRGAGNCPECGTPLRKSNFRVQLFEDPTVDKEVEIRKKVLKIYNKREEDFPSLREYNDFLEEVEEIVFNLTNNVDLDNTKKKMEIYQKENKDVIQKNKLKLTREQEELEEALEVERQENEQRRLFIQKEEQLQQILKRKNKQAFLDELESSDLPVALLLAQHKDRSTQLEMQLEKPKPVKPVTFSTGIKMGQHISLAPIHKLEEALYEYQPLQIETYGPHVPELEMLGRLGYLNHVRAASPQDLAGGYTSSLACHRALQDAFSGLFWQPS

[2] = tested on: RNA Polymerase II Serine 5 phosphorylation (Rpb1 CTD, downstream substrate of CDK7) in A549 cells; experiment: Imaging-based cellular RNA PolII Ser5 phosphorylation assay in A549 cells; assay type: cell-based, human; details: Homo sapiens
Procedure, shortened: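 A549 cells, seeded 1000/well in DMEM with 1% FBS and cultured 20 h, were treated with compound for 3 h at 37 °C. Ser5-phospho-Rpb1 CTD detected by immunofluorescence imaging after fixation and methanol permeabilization; IC50 from curve fit normalized to DMSO and 10 μM reference-compound controls.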

[3] = tested on: RNA Polymerase II Serine 5 phosphorylation in A549 cells overexpressing CDK7-mutant (C312S); experiment: Imaging-based cellular RNA PolII Ser5 phosphorylation assay in A549 cells overexpressing CDK7-mutant (C312S); assay type: cell-based, human; details: Homo sapiens
Procedure, shortened: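 A549 cells overexpressing CDK7 C312S (with endogenous wild-type CDK7) were treated with compound for 3 h at 37 °C in 1% FBS medium. Phospho-Rpb1 CTD Ser5 was immunostained after fixation and imaged. IC50 came from curve fit of % control, normalised to DMSO and 10 μM reference-compound controls.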

[4] = read-out: CDK7 (20 nM enz.) (kinact, s^−1), 20 nM enzyme
[5] = read-out: CDK7 (20 nM enz.) (kinact/KI, M^−1*s^−1), 20 nM enzyme
[6] = A549, A549 cells, wild-type CDK7, RNA PolII Ser5 phosphorylation, averaged over all measurements, read-out: CDK7_A549 Wild-type CDK7 (pIC50) (converted)
[7] = A549, A549 cells overexpressing CDK7-mutant (C312S), RNA PolII Ser5 phosphorylation, averaged over all measurements, read-out: CDK7_A549 mutant hCDK7(pIC50) (converted)

Ki [1] [µM] | kinact [1, 4] [s⁻¹] | kinact/KI [1, 5] [M⁻¹ s⁻¹] | IC50 [2, 6] [µM] | IC50 [3, 7] [µM] | Structure (SMILES) | kinact ([1]; read-out: CDK7 (20 nM enz.) (kinact, s^−1)) [s⁻¹] | kinact/KI ([1]; read-out: CDK7 (20 nM enz.) (kinact/KI, M^−1*s^−1)) [M⁻¹ s⁻¹] | IC50 ([2]; A549, read-out: CDK7_A549 Wild-type CDK7 (pIC50) (converted)) [µM] | IC50 ([3]; A549, read-out: CDK7_A549 mutant hCDK7(pIC50) (converted)) [µM]
0.17 | 5.48e-05 | 323 | 0.151 | > 10 | C=CC(=O)N1CC(c2nc(C)c(-c3cc(C)c4c(c3)Nc3nccc(C5CCOCC5)c3CO4)c(C)n2)C1 [Compound 129] |  |  |  | 
0.11 | 7.73e-05 | 704 | 0.0977 | > 10 | C=CC(=O)N1CC(N2CCC(c3cc4c(cn3)OCc3c(C5CCOCC5)ccnc3N4)CC2)C1 [Compound 130] |  |  |  | 
0.312 | 7.08e-05 | 227 | 0.363 | > 10 | C=CC(=O)N1CC(N2CCC(c3ccc4c(c3)Nc3nccc(N5CCc6nn(C)cc6C5)c3CO4)CC2)C1 [Compound 132] |  |  |  | 
0.0971 | 6.94e-05 | 715 | 0.166 | > 10 | C=CC(=O)N1CC(N2CCC(c3cc(C)c4c(c3)Nc3nccc(C5CCS(=O)(=O)CC5)c3CO4)CC2)C1 [Compound 133] |  |  |  | 
0.0578 | 5.71e-05 | 988 | 0.263 | ~7.08 | C=CC(=O)N1CC(N2CCC(c3cc4c(c(C(=O)NC)c3)OCc3c(C5CCOCC5)ccnc3N4)CC2)C1 [Compound 135] |  |  |  | 
0.0603 | 4.42e-05 | 734 | 0.0724 | 7.24 | C=CC(=O)N1CCC(N2CC(c3cc(F)c4c(c3)Nc3nccc(N5CCOCC5)c3CO4)C2)CC1 [Compound 136] |  |  |  | 
0.0382 | 6.41e-05 | 1680 | 0.126 | > 10 | C=CC(=O)N1CC(N2CCC(c3cc4c(cn3)OCc3c(N5CCOCC5)ccnc3N4)CC2)C1 [Compound 137] |  |  |  | 
0.515 | 6.73e-05 | 131 | 0.661 | > 10 | C=CC(=O)N1CC(N2CCC(c3cc4c(cc3CO)OCc3c(N5CCOCC5)ccnc3N4)CC2)C1 [Compound 139] |  |  |  | 
0.16 | 8.36e-05 | 523 | 0.178 | > 10 | C=CC(=O)N1CC(N2CCC(c3cc(F)c4c(c3)Nc3nccc(N5CCS(=O)(=O)CC5)c3CO4)CC2)C1 [Compound 141] |  |  |  | 
0.0285 | 5.53e-05 | 1940 | 0.214 | > 10 | C#CCCN(C)C/C=C/C(=O)N1CC(N2CCC(c3ccc4c(c3)Nc3nccc(N5CCOCC5)c3C(C)O4)CC2)C1 (stereo not drawn) [Compound 146] |  |  |  | 
0.0278 | 5.84e-05 | 2100 | 0.288 | > 10 | C#CCCN(C)C/C=C/C(=O)N1CC(N2CCC(c3ccc4c(c3)Nc3nccc(C5CCOCC5)c3C(C)O4)CC2)C1 (stereo not drawn) [Compound 147] |  |  |  | 
0.0507 | 3.38e-05 | 666 | 0.0372 | 5.5 | C=CC(=O)N1CCC(N2CC(c3cc(Cl)c4c(c3)Nc3nccc(C5CCOCC5)c3CO4)C2)CC1 [Compound 148] |  |  |  | 
0.0205 | 4.67e-05 | 2280 | 0.0347 | > 10 | C=CC(=O)N1CC(N2CCC(c3ccc4c(c3)Nc3ncc(F)c(N5CCOCC5)c3CO4)CC2)C1 [Compound 151] |  |  |  | 
0.0242 | 4.68e-05 | 1940 | ~0.0676 | > 10 | C=CC(=O)N1CC(N2CCC(c3ccc4c(c3)Nc3nccc(-c5cnn(C)c5)c3C(C)(C)O4)CC2)C1 [Compound 152] |  |  |  | 
0.304 | 9.03e-05 | 298 | 0.49 | > 10 | C=CC(=O)N1CC(N2CCC(c3cc(C)c4c(c3)Nc3ncc(C#N)c(N5CCOCC5)c3CO4)CC2)C1 [Compound 156] |  |  |  | 
0.204 | 7.68e-05 | 377 | 0.126 | > 3.98 | C=CC(=O)N1CC(N2CCC(c3cc4c(c(C(N)=O)c3)OCc3c(C5CCOCC5)ccnc3N4)CC2)C1 [Compound 158] |  |  |  | 
0.0393 | 6.88e-05 | 1750 | 0.0646 | > 10 | C=CC(=O)Nc1ccc(-c2cc3c(cn2)OCc2c(N4CCOCC4)ccnc2N3)cc1 [Compound 160] |  |  |  | 
0.0363 | 3.09e-05 | 851 | 0.123 | > 10 | C#Cc1cc2c(cc1C1CCN(C3CN(C(=O)C=C)C3)CC1)Nc1nccc(N3CCOCC3)c1C(C)O2 (stereo not drawn) [Compound 161] |  |  |  | 
0.149 | 4.88e-05 | 327 | 0.182 | > 10 | C=CC(=O)N1CC2(CC(c3cc(F)c4c(c3)Nc3nccc(N5CCOCC5)c3CO4)C2)C1 [Compound 162] |  |  |  | 
0.0262 | 5.16e-05 | 1970 | 0.0759 | > 10 | C=CC(=O)N1CC(N2CC(c3cc(F)c4c(c3)Nc3nccc(N5CCOCC5)c3CO4)C2)C1 [Compound 166] |  |  |  | 
0.0325 | 5.4e-05 | 1660 | 0.105 | > 10 | C=CC(=O)N1CC(N2CC(c3ccc4c(c3)Nc3nccc(C5CCOCC5)c3CO4)C2)C1 [Compound 167] |  |  |  | 
0.0532 | 3.63e-05 | 682 | 0.0537 | > 10 | C#Cc1cc2c(cc1C1CCN(C3CN(C(=O)C=C)C3)CC1)Nc1nccc(C3CCOCC3)c1C(C)O2 (stereo not drawn) [Compound 169] |  |  |  | 
0.125 | 3.7e-05 | 296 | 0.12 | 7.76 | C=CC(=O)N1CCC(N2CC(c3cc4c(c(C)n3)OCc3c(-c5cnn(C)c5)ccnc3N4)C2)CC1 [Compound 170] |  |  |  | 
0.143 | 5.74e-05 | 401 | 0.324 | > 10 | C=CC(=O)N1CC(N2CCC(c3cc4c(cc3C#N)OCc3c(N5CCOCC5)ccnc3N4)CC2)C1 [Compound 174] |  |  |  | 
0.0695 | 4.03e-05 | 580 | 0.24 | > 10 | C#Cc1cc2c(cc1C1CCN(C3CN(C(=O)C=C)C3)CC1)Nc1nccc(N3CCOCC3)c1CO2 [Compound 175] |  |  |  | 
0.0372 | 5.38e-05 | 1440 | 0.186 | > 10 | C=CC(=O)N1CC(N2CC(c3ccc4c(c3)Nc3nccc(-c5cnn(C)c5)c3CO4)C2)C1 [Compound 176] |  |  |  | 

Structure (SMILES) | Ki [1] [µM] | kinact [1, 4] [s⁻¹] | kinact/KI [1, 5] [M⁻¹ s⁻¹] | IC50 [2, 6] [µM] | IC50 [3, 7] [µM] | kinact ([1]; read-out: CDK7 (20 nM enz.) (kinact, s^−1)) [s⁻¹] | kinact/KI ([1]; read-out: CDK7 (20 nM enz.) (kinact/KI, M^−1*s^−1)) [M⁻¹ s⁻¹] | IC50 ([2]; A549, read-out: CDK7_A549 Wild-type CDK7 (pIC50) (converted)) [µM] | IC50 ([3]; A549, read-out: CDK7_A549 mutant hCDK7(pIC50) (converted)) [µM]
C=CC(=O)N1CC(N2CCC(O)(c3cc(C)c4c(c3)Nc3nccc(N5CCOCC5)c3CO4)CC2)C1 [Compound 140] | 0.0741 | 6.51e-05 | 878 | 0.117 | > 10 |  |  |  | 
C=CC(=O)N1CC(N2CCC(O)(c3ccc4c(c3)Nc3nccc(N5CCOCC5)c3C(C)O4)CC2)C1 (stereo not drawn) [Compound 154] | 0.137 | 5.98e-05 | 438 | 0.117 | > 10 |  |  |  | 
C=CC(=O)N1CC(N2CCC(O)(c3cc(C)c4c(c3)Nc3nccc(C5CCOCC5)c3CO4)CC2)C1 [Compound 159] | 0.144 | 0.000115 | 794 | 0.0708 | > 10 |  |  |  | 
C=CC(=O)N1CCC(N2CC(c3cc4c(c(C)n3)OCc3c(N5CCOCC5)ccnc3N4)C2)CC1 [Compound 165] | 0.0638 |  |  |  |  | 5.16e-05 | 808 | 0.0575 | 6.03
